The source of these data is patent US8124617B2, “Imidazopyridine compounds” (Takeda San Diego, Inc., priority 2005, dated 2012).

Data set [1] has as its target T1, GST-hLGK1 (human hepatic GK) (Homo sapiens, UniProt P35557).
T1 construct: made in house; host or cells: Escherichia coli BL21 (pGEX6P-2/hLGK1)
T1 sequence (P35557 1-464 isoform P35557-3): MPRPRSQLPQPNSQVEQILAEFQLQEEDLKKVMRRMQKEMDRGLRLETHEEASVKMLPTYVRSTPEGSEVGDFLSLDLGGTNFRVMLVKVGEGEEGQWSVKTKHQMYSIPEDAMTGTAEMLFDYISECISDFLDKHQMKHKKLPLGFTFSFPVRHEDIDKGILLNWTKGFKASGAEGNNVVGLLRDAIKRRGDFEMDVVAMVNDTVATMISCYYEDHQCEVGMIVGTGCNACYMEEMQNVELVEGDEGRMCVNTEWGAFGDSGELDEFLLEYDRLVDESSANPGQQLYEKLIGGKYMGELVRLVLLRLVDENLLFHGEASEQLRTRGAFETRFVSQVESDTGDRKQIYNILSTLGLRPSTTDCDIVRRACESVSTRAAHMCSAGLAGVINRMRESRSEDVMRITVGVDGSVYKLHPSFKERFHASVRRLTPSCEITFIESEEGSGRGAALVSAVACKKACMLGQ
Put plainly: Measurement of GK activation value (Mant-ATP/Mant-ADP capillary electrophoresis, reaction rate). In kind it is biochemical. The settings on record: concentration necessary for activation of 50% of the maximum activity value; 37° C., 60 min. As for the experimental part: A plasmid DNA for expression of protein (GST-hLGK1) containing GST (Glutathione S-transferase) added to human hepatic GK amino terminal in Escherichia coli was prepared as follows.
BL21 strain (Stratagene) transformed with pGEX6P-2/hLGK1 obtained in Reference Example 1A was cultured with shaking in a 200 ml Erlenmeyer flask containing a 100 μg/ml ampicillin-containing LB medium (50 ml) at 37° C. for 14 hr. The culture medium (25 ml) was diluted with 100 μg/ml ampicillin-containing LB medium (225 ml), and further cultured with shaking in a 1 L Erlenmeyer flask at 37° C. for 1 hr. After cooling on ice the Erlenmeyer flask after culture, 100 mM Isopropyl-Thio-β-D-Galactopyranoside (IPTG) (125 μL) was added (final concentration 50 μM), and the mixture was cultured at 17° C. for 20 hr. After centrifugation of the culture medium, the obtained cells were ultrasonicated, and the object protein (GST-hLGK1) was purified from the supernatant using Glutathione Sepharose 4B (Amersham Biosciences).
A 50% solution (5 μL) of the test compound in dimethyl sulfoxide was added to each well of a 384 well black plate (Nalge Nunc). Then, 35 μL of a liquid obtained by diluting GST-hLGK1 obtained in Reference Example 2A with a measurement buffer (50 mM HEPES (pH 7.4), containing 200 mM KCl, 5 mM MgCl2, 2.5 mM DTT and 50 μM 2′-(or-3′)-O—(N-methylanthraniloyl)adenosine 5′-triphosphate (Mant-ATP) (Jena Bioscience)) was added to each well to 6 μg/mL.
Each well was stood at 37° C. for 10 min, and a 25 mM D-glucose solution (10 μL) was added to start the reaction.
Each well after the start of the reaction was stood at 37° C. for 60 min, and the reaction was quenched by adding 25 μL of a reaction quenching solution (200 mM HEPES (pH 7.4), containing 20 mM MgCl2, 200 mM EDTA, 0.03% Triton-X 100, 0.3% Coating 3 reagent (Caliper Life Sciences)).
Mant-ATP (substrate) and Mant-ADP (reaction resultant product) were separated from each well after quenching the reaction, with a microchip type capillary electrophoresis apparatus 250HTS (Caliper Life Sciences). The reaction rate [(peak height of reaction resultant product)/(peak height of reaction resultant product+peak height of substrate)×100(%)] was calculated from the ratio of the substrate peak height and the reaction resultant product peak height, which were obtained by fluorescence detection (excitation wavelength 355 nm, measurement wavelength 460 nm), and used as an index of the GK activity.
For the control, the reaction rate was calculated in the same manner as in the above except that “50% dimethyl sulfoxide solution” was used instead of the “50% solution of the test compound in dimethyl sulfoxide”.
A percentage obtained by dividing the reaction rate of the well added with the test compound (test compound addition group) by the reaction rate of the well added with a 50% dimethyl sulfoxide solution alone (control group) was taken as the GK activation value by the test compound, and the concentration of the test compound necessary for the activation of 50% of the maximum activity value is shown as an EC50 value.

One may read the EC50 as the concentration at which the effect is half-maximal. Read a low EC50 as an effect from little substance. Broadly, the melting point is the temperature, or range, at which the solid turns liquid.

Consider `COc1ccccc1-c1cnc2[nH]c(-c3cc(OCc4ccccc4)ccc3OC(C)C)nc2c1` [Example 48, 2-[5-(benzyloxy)-2-isopropoxyphenyl]-6-(2-methoxyphenyl)-3H-imidazo[4,5-b]pyridine], for which, in data set [1], the midpoint of the response, the EC50, lay at 0.24 µM. Take `CC(C)Oc1cc(OCc2ccccc2)cc(-c2nc3cccnc3[nH]2)c1` [Example 2, 2-[3-(benzyloxy)-5-isopropoxyphenyl]-3H-imidazo[4,5-b]pyridine]: the melting point was 136 to 137 °C. The same molecule registered a half-maximal effective concentration (EC50) in data set [1] of 0.13 µM. For `CC(C)Oc1ccc(OCc2ccccc2)cc1-c1nc2cc(CO)cnc2[nH]1` [Example 76, {2-[5-(benzyloxy)-2-isopropoxyphenyl]-3H-imidazo[4,5-b]pyridin-6-yl}methanol], the melting point was in the range of 167 to 168 °C. In data set [1], this molecule came in with a concentration for a half-maximal effect (EC50) of 0.73 µM.

With `CC(C)Oc1ccc(OCc2ccccc2)cc1-c1nc2ccc(C#N)nc2[nH]1` [Example 84, 2-[5-(benzyloxy)-2-isopropoxyphenyl]-3H-imidazo[4,5-b]pyridine-5-carbonitrile], the melting point lay in the range of 214 to 215 °C.

`COc1ccc(-c2cnc3[nH]c(-c4ccc(OCc5ccccc5)cc4OC(C)C)nc3c2)cc1` [Example 51, 2-[4-(benzyloxy)-2-isopropoxyphenyl]-6-(4-methoxyphenyl)-3H-imidazo[4,5-b]pyridine]: the EC50 in data set [1] came to 0.25 µM. For the molecule `CC(C)Oc1ccc(OCc2ccccc2)cc1-c1nc2cc(CNCC(=O)O)cnc2[nH]1` [Example 83, N-({2-[5-(benzyloxy)-2-isopropoxyphenyl]-3H-imidazo[4,5-b]pyridin-6-yl}methyl)glycine], the melting point was 182 to 184 °C. Still for that read-out and setting: to `CC(C)CNCc1cnc2[nH]c(-c3cc(OCc4ccccc4)ccc3OC(C)C)nc2c1` [Example 78, N-({2-[5-(benzyloxy)-2-isopropoxyphenyl]-3H-imidazo[4,5-b]pyridin-6-yl}methyl)-2-methylpropan-1-amine] belongs 101 to 103 °C.

Turning to `COC(=O)CNCc1cnc2[nH]c(-c3cc(OCc4ccccc4)ccc3OC(C)C)nc2c1` [Example 82, methyl N-({2-[5-(benzyloxy)-2-isopropoxyphenyl]-3H-imidazo[4,5-b]pyridin-6-yl}methyl)glycinate], the melting point lay within 69 to 71 °C. The EC50 in data set [1] is 3.7 µM. Take `CC(C)Oc1ccc(OCc2ccccc2)cc1-c1nc2cc(C=O)cnc2[nH]1` [Example 77, 2-[5-(benzyloxy)-2-isopropoxyphenyl]-3H-imidazo[4,5-b]pyridine-6-carbaldehyde]: the melting point was 170 to 171 °C. For `CCOC(=O)c1cnc2[nH]c(-c3cc(OCc4ccccc4)ccc3OC(C)C)nc2c1` [Example 74, ethyl 2-[5-(benzyloxy)-2-isopropoxyphenyl]-3H-imidazo[4,5-b]pyridine-6-carboxylate], the melting point was 138 to 140 °C. The molecule `CC(C)Oc1ccc(OCc2ccccc2)cc1-c1nc2cc(-c3cccnc3)cnc2[nH]1` [Example 40, 2-[5-(benzyloxy)-2-isopropoxyphenyl]-6-pyridin-3-yl-3H-imidazo[4,5-b]pyridine] returned a half-maximal effective concentration (EC50) in data set [1] of 0.44 µM. Turning to `CC(C)Oc1cc(OCc2ccccc2)ccc1-c1nc2cc(-c3cccc(F)c3)cnc2[nH]1` [Example 73, 2-[4-(benzyloxy)-2-isopropoxyphenyl]-6-(3-fluorophenyl)-3H-imidazo[4,5-b]pyridine], in data set [1], a half-maximal effect (EC50) was put at 0.15 µM. With `CC(C)Oc1cc(OCCCc2cccnc2)cc(-c2nc3cccnc3[nH]2)c1` [Example 4, 2-[3-isopropoxy-5-(3-pyridin-3-ylpropoxy)phenyl]-3H-imidazo[4,5-b]pyridine], the melting point lay within 110 to 112 °C. Moreover, in data set [1], the midpoint of the response, the EC50, lay at 1.6 µM.

`CC(C)Oc1cc(OCc2ccccc2)ccc1-c1nc2cc(-c3ccccc3F)cnc2[nH]1` [Example 72, 2-[4-(benzyloxy)-2-isopropoxyphenyl]-6-(2-fluorophenyl)-3H-imidazo[4,5-b]pyridine] returned a concentration giving a half-maximal response (EC50) in data set [1] of 0.2 µM. The molecule `CC(C)Oc1ccc(OCc2ccccc2)cc1-c1nc2ccc(CO)nc2[nH]1` [Example 87, {2-[5-(benzyloxy)-2-isopropoxyphenyl]-3H-imidazo[4,5-b]pyridin-5-yl}methanol] had a melting point of 167 to 168 °C.

Molecule `CC(C)Oc1cc(OCc2ccccc2)cc(-c2nc3cc(-c4cccnc4)cnc3[nH]2)c1` [Example 61, 2-[3-(benzyloxy)-5-isopropoxyphenyl]-6-pyridin-3-yl-3H-imidazo[4,5-b]pyridine] displayed an EC50 in data set [1] of 1.1 µM. For `CC(C)Oc1cc(OCc2ccccc2)ccc1-c1nc2cc(-c3ccc(F)cc3)cnc2[nH]1` [Example 50, 2-[4-(benzyloxy)-2-isopropoxyphenyl]-6-(4-fluorophenyl)-3H-imidazo[4,5-b]pyridine], in data set [1], the EC50 was found to be 0.29 µM. `CC(C)Oc1ccc(OCc2ccccc2)cc1-c1nc2cc(CNCc3ccccc3)cnc2[nH]1` [Example 79, N-benzyl-1-{2-[5-(benzyloxy)-2-isopropoxyphenyl]-3H-imidazo[4,5-b]pyridin-6-yl}methaneamine] had a melting point of 92 to 94 °C. Turning to `CC(C)Oc1cc(OCCc2ccsc2)cc(-c2nc3cccnc3[nH]2)c1` [Example 3, 2-{3-isopropoxy-5-[2-(3-thienyl)ethoxy]phenyl}-3H-imidazo[4,5-b]pyridine], the melting point lay in the range of 82 to 83 °C. The concentration giving a half-maximal response (EC50) in data set [1] stood at 0.15 µM.

`COc1ccc(OCc2ccccc2)cc1-c1nc2cccnc2[nH]1` [Example 5, 2-(5-(benzyloxy)-2-methoxyphenyl)-3H-imidazo[4,5-b]pyridine] returned an EC50 in data set [1] of 2.1 µM. Regarding `Cc1ccccc1-c1cnc2[nH]c(-c3cc(OCc4ccccc4)ccc3OC(C)C)nc2c1` [Example 47, 2-[5-(benzyloxy)-2-isopropoxyphenyl]-6-(2-methylphenyl)-3H-imidazo[4,5-b]pyridine], the half-maximal effective concentration (EC50) in data set [1] worked out at 0.4 µM. Same read-out and setting: for `COc1ccc(-c2cnc3[nH]c(-c4cc(OCc5ccccc5)ccc4OC(C)C)nc3c2)c(OC)c1` [Example 45, 2-[5-(benzyloxy)-2-isopropoxyphenyl]-6-(2,4-dimethoxyphenyl)-3H-imidazo[4,5-b]pyridine] the value was 0.28 µM. With `COCCNCc1cnc2[nH]c(-c3cc(OCc4ccccc4)ccc3OC(C)C)nc2c1` [Example 81, N-({2-[5-(benzyloxy)-2-isopropoxyphenyl]-3H-imidazo[4,5-b]pyridin-6-yl}methyl)-2-methoxyethaneamine], the melting point was in the range of 80 to 81 °C. The molecule `CC(C)Oc1ccc(OCc2ccccc2)cc1-c1nc2cc(CNCCOc3ccccc3)cnc2[nH]1` [Example 80, N-({2-[5-(benzyloxy)-2-isopropoxyphenyl]-3H-imidazo[4,5-b]pyridin-6-yl}methyl)-2-phenoxyethaneamine] yielded a melting point of 67 to 68 °C. The molecule also returned a half-maximal effective concentration (EC50) in data set [1] of 0.82 µM.
